Results published in patent publication US10457639B2, “Fluorescent regulators of RASSF1A expression and human cancer cell proliferation” (GEORGETOWN UNIVERSITY, priority 2008, dated 2019).
Like-named read-outs stand apart in the source and are kept apart here.

Key:
[1] = tested on: PC3 cells; assay: Cell growth assay, trypan blue dye exclusion count; assay type: cell-based
Method: Cell Line and Cell Growth Assay. Human prostate cancer cell line PC-3 was procured from the American Type Cell Culture Collection (Manassas, Va.). Cells were grown in IMEM without phenol red (Invitrogen, Carlsbad, Calif.) with 10% fetal bovine serum, 2 mM glutamine, 100 U/mL penicillin G sodium, and 100 μg/mL streptomycin sulfate (Sigma, St. Louis, Mo.) in the presence of 5% CO2 at 37° C. For the cell growth experiment, PC-3 cells were seeded in 6-well plates in triplicate with an initial density of 2×10^3 cells per well. Twenty-four hours after seeding, the attached cells were treated with vehicle (DMSO) or 1, 5, 15, 30 and 60 μM compound. After another twenty-four hours, the cells were washed with 1×PBS, trypsinized and re-suspended in complete growth medium. Trypan blue (0.4%) was added to the cell suspension and both live and dead cells were counted using a hemocytometer.
Compounds 6-10 were screened for growth inhibition in PC-3 human prostate cancer cells using previously reported methods (Table 1; Sinha et al. The Prostate. 2006, 66, 1257-1265). […] This was unexpected, since the methyl moiety of mahanine is in the 3-position. Compound 9, with its GI50 value near that of the compound 6 series (compounds 6, 6a, 8) and a deprotected hydroxyl group in the 2-position, implies that whatever hindrance is imposed by a methyl in the 3-position can be partially overcome if steric bulk at the 2-position is reduced. Indeed, looking at the structure of mahanine, the restraint of the ether cycle may provide enough reduction of apparent bulk at the 2-position to moderate its methyl in the 3-position. Additionally, the ether ring system puts the equivalent of a methyl group in the 1-position, which could also be aiding in the low μM activity of mahanine, if the relatively lower values for the compound 6 series are any indication. Moreover, analyzing the structure of compound 10 based on the same criteria, the double-bonded carbon of the ether cycle in the 3-position along with bulk off the 2-position might explain its lesser growth inhibition when compared to mahanine, while the methyl in the 1-position still gives it better activity than compounds 7 and 7a.

[2] = tested on: PC-3 cells; assay: BrdU labeling, DNA synthesis (Cell Proliferation ELISA BrdU); assay type: cell-based, human; conditions: 5 μM compound, 24 hours
Method: PC-3 cells were plated in 96-well plates and treated with 5 μM of compound. After 24 hours, the cells were assayed for BrdU labeling using the Cell Proliferation ELISA BrdU kit from Roche; background BrdU incorporation levels (absent anti-BrdU-peroxidase solution) were subtracted and values were normalized to those of control untreated cells.
BrdU Labeling. For the BrdU experiment, PC-3 cells were seeded in 96-well plates at a density of 2×10^3 cells/well, treated with 5 μM of compound for 24 hr and assayed BrdU using the Cell Proliferation ELISA BrdU (chemiluminescence) (Roche Diagnostics, IN) kit according to the manufacturer's protocol. Briefly, 10 μL of 100 μM BrdU labeling solution was added to the cultured cells and were incubated for 1 hr at 37° C., the labeling solution was removed and the FixDenat solution provided with the kit was added for 30 min and incubated at room temperature. Cells were then incubated with anti-BrdU conjugated to peroxidase (1:1500) for 60 min. Finally, the plates were washed and 100 μL of substrate solution was added to each well, and the light emission was measured using a microplate luminometer (Harta Instruments, Inc., Gaithersburg, Md.).
To assess the levels of DNA synthesis within cells treated with mahanine compared to those treated with compounds 6-10, cultured cells were treated according to standard procedure with 5-bromo-2-deoxy-uridine (BrdU) after 24 hours of treatment (FIG. 2).

[3] = tested on: DNA methyltransferase (DNMT); assay: DNA methyltransferase activity assay (EpiQuik kit, nuclear extracts of treated PC-3 cells); assay type: cell-based, human; conditions: 72 hours
Method: Black bars: PC-3 cells were treated 72 hours with either mahanine or compound 6a at 5 μM or compound 6, 7, 7a, 8, or 9 at 15 μM and then assayed for DNMT activity using the DNMT activity kit from Epigentek. Data are mean of three independent experiments ±SEM. Grey bars: Densitometry from RT-PCR blot where the amount of RASSF1A mRNA re-expressed by mahanine treatment is normalized to 100%.
DNA methyltransferase activity assay. PC-3 cells were plated in complete growth media, treated with either mahanine or compound 6a at 2 μM or compound 6, 7, 7a, 8, 9, 10 at 15 μM for 3 days and then harvested. Nuclear extracts were prepared according to manufacturer's protocol (Nuclear extraction kit, Epigentek). DNMT activity was measured using an EpiQuik DNA methyltransferase activity assay kit (Epigentek). Results were expressed as percent DNMT activity compared to the DMSO control as 100%.
The levels of DNMT activity in treated versus untreated prostate cancer cells were measured using a DNMT assay kit from Epigentek. […] These reduced DNMT activities correlate with the pattern of RASSF1A induction described above (FIG. 7, grey bars). The data imply that inhibition of DNMT prevents hypermethylation of the RASSF1A promoter region and consequently restores RASSF1A.

[4] = tested on: RASSF1A; assay: RT-PCR of RASSF1A mRNA in treated PC-3 cells; assay type: cell-based, human
Method: (§1) Representative photograph of an experiment repeated thrice. PC-3 cells were treated 24 hours with either 15 μM for compounds 6, 7, 7a, 8, 9, 10 or 5 μM for compound KED-4-69 (compound 6a) before RNA extraction and RT-PCR amplification.
(§2) Reverse Transcriptase-polymerase Chain Reaction (RT-PCR). From PC-3 cells incubated 24 hours with either 15 μM of compound 6, 7, 7a, 8, 9, 10 or 5 μM of KED-4-69 (compound 6a), RNA was extracted with TRIzol solution (Invitrogen, Carlsbad, Calif.) and genes of interest were amplified using 500 ng of total RNA reverse-transcribed to cDNA using a Superscript II kit (Invitrogen) with random hexamers. Human-specific primers were designed using the Primer Quest program and purchased from Integrated DNA Technologies, Inc. (Coralville, Iowa). Their sequences and product band sizes are: cyclin D1 forward primer 5′-[…]-3′ (SEQ ID NO:1), cyclin D1 reverse primer 5′-[…]-3′ (SEQ ID NO:2) (475 bp) and GAPDH forward primer: 5′-CCA […]-3′ (SEQ ID NO:3), GAPDH reverse primer: 5′-TCTAGACGGCAG GTCAGGTCCACC-3′ (SEQ ID NO:4) (598 bp). PCRs were initiated at 94° C. for 2 min, followed by 28 cycles of 94° C. for 1 min, 1 min annealing temperature, 72° C. for 1 min, and final extension at 72° C. for 5 min. The annealing temperature for cyclin D1 and GAPDH was 60° C. Primers and PCR conditions for RASSF1A are used as described by Rong et al. (Oncogene. 2004, 23, 8216-8230). After amplification, PCR products were separated on 1.5% agarose gels and visualized by ethidium bromide fluorescence using the Fuji LAS-1000 Imager. Images were captured and imported to Adobe Photoshop. Band intensities were quantified by using ImageJ software (NIH, Bethesda, Md.).
(§3) It has been reported that mRNA levels of RASSF1A correlate to its protein expression levels (Rong et al. Oncogene, 2004, 23: 8216-8230). To investigate the effects of the synthetic compounds on RASSF1A and cyclin D1 expression, levels of the respective mRNAs in treated cells compared to control were analyzed (FIG. 3). […] Because overexpression of cyclin D1 is associated with tumorigenicity and proliferation in a variety of tumors, including prostate cancers, this downregulation provides a cancer treatment method (Chen, Y. et al. Oncogene. 1998, 16, 1913-1920; Musgrove, E. A. et al. Proc. Natl. Acad. Sci. USA. 1994, 91, 8022-8026).

[5] = tested on: cyclin D1; assay: RT-PCR of cyclin D1 mRNA in treated PC-3 cells; assay type: cell-based, human
Method: as §1, §2, §3

[6] = Homo sapiens, PC-3, concentration for 50% growth inhibition in PC3 cells, 24 hours of treatment, mean ± SEM of three observations, read-out: GI50
[7] = mahanine, concentration not given

Row | Compound | DNA synthetic ability (BrdU labeling) [2] | DNMT activity versus DMSO control ([3]; 15 μM) | GI50 [1, 6] | RASSF1A mRNA level versus control ([4]; 15 μM, 24 hours) | cyclin D1 mRNA level versus control ([5]; 15 μM, 24 hours) | also measured
1 | COc1ccc2c(c1)[nH]c1c(C)c(O)ccc12 [Compound 8, 7-Methoxy-1-methyl-9H-carbazol-2-ol] | no change in the DNA synthetic ability | slight decrease in DNMT activity | – | – | – | GI50 ([1]; Homo sapiens, PC-3, 24 h): 18.7 ± 1.8 µM
2 | COc1ccc2c(c1)[nH]c1cc(OS(=O)(=O)c3cccc4c(N(C)C)cccc34)c(C)cc12 [Compound 7a, 7-Methoxy-3-methyl-9H-carbazol-2-yl 5-(dimethylamino)naphthalene-1-sulfonate] | – | – | 22.9 ± 4.5 µM | no change in expression levels from control | no change in expression levels from control | –
3 | COc1ccc2c(c1)[nH]c1c(C)c(OCc3ccccc3)ccc12 [Compound 6, 2-(Benzyloxy)-7-methoxy-1-methyl-9H-carbazole] | decrease in DNA synthetic ability | Significant inhibition of DNMT activity | 17.6 ± 2.7 µM | significant increase in RASSF1A | corresponding decrease in cyclin D1 | –
4 | mahanine [reference compound] | decrease in DNA synthetic ability | – | – | – | – | doses at which cytotoxic ([1]; PC-3 cells): above 5 μM; GI50 ([1]; concentration for 50% growth inhibition in PC3 cells, 24 hours of treatment, mean ± SEM of three observations, read-out: GI50): 2.5 ± 0.18 µM; RASSF1A mRNA level versus control [4, 7]: significant increase in RASSF1A; cyclin D1 mRNA level versus control [5, 7]: corresponding decrease in cyclin D1; DNMT activity versus DMSO control ([3]; 5 μM (FIG. 7 legend; method says 2 μM)): Significant inhibition of DNMT activity
5 | COc1ccc2c(c1)[nH]c1cc(OCc3ccccc3)c(C)cc12 [Compound 7, 2-(benzyloxy)-7-methoxy-3-methyl-9H-carbazole] | – | – | 48.9 ± 1.1 µM | no change in expression levels from control | no change in expression levels from control | –
6 | COc1ccc2c(c1)[nH]c1cc(O)c(C)cc12 [Compound 9, 7-Methoxy-3-methyl-9H-carbazol-2-ol] | decrease in DNA synthetic ability | slight decrease in DNMT activity | 15.3 ± 2.8 µM | – | – | –
